# Residues, ends and D or L forms follow the SMILES beside them.
# Columns and labels:
# [1] = test system: Primary human epidermal keratinocytes; test: Protection against DNA oxidation induced by synthetic smoke (8-OHdG, competitive ELISA); assay type: cell-based; conditions: synthetic smoke 48 h
# Method: (§1) Primary human epidermal keratinocytes were seeded in 96-well plates in standard culture medium and, 24 hours later, subjected to a simultaneous treatment with synthetic smoke containing selected compounds from the particle phase (for example, cadmium and nicotine) and vapour phase (for example, formaldehyde (hereinafter, FA) and ethyl carbamate) of tobacco smoke and the analysed compound (Ac-SEQ ID NO: 1-NH2) for 48 h.
# After treatment, cells were lysed and DNA oxidation on cell homogenates was analysed measuring levels of 8-OHdG by means of a competitive ELISA assay with absorbance at 450 nm.
# [2] = test system: Primary human epidermal keratinocytes; test: Protection against lipoxidation induced by synthetic smoke (intracellular MDA); assay type: cell-based; conditions: synthetic smoke 48 h
# Method: as §1
# In addition, after treatment, lipoxidation was analysed by means of the levels of intracellular MDA, which were measured by the reaction between MDA and N-methyl-2-phenylindole (hereinafter, NMPI) rendering a stable blue chromophore with an absorption peak at 586 nm.
# [3] = test system: Primary human epidermal melanocytes; test: Brightening activity: intracellular melanin content; assay type: cell-based; conditions: 7 days, kojic acid 10 and 50 μM
# Method: Two concentrations of kojic acid were used as positive control.
# Kojic acid was used as positive control.
# Primary human epidermal melanocytes were incubated in 6-well plates for 4 days and then treated with the compounds to be analysed (Ac-SEQ ID NO: 1-NH2, Ac-SEQ ID NO: 2-NH2, Ac-SEQ ID NO: 3-NH2 or Ferulic acid-SEQ ID NO: 2-NH2) for 7 days. After treatment, cells were homogenized an intracellular melanin content was quantified by absorbance at 450 nm by Multiskan FC (Thermo Fisher Scientific, MA, USA).
# [4] = test system: Primary human epidermal keratinocytes; test: Protection against oxidative stress (reactive oxygen species) induced by hydrogen peroxide; assay type: cell-based; conditions: all concentrations tested
# Method: Columns from left to right in the x-axis of FIG. 4(A) correspond to: basal state (cells to which no treatment is applied), positive control, negative control of oxidation (sample treated with 1 mM ascorbic acid) and treatments with Ac-SEQ ID NO: 1-NH2 concentrations of 0.001 mg/ml, 0.005 mg/ml and 0.01 mg/ml, respectively. […] Columns from left to right in the x-axis of FIG. 3(B) correspond to: basal state (cells to which no treatment is applied), positive control, negative control (sample treated with 1 mM ascorbic acid) and treatments with Ac-SEQ ID NO: 2-NH2 concentrations of 0.001 mg/ml, 0.005 mg/ml, 0.01 mg/ml and 0.05 mg/ml, respectively.
# Primary human epidermal keratinocytes were seeded in black 96 well-plates in the corresponding culture medium and, 48 hours later, treated with the different compounds analysed (Ac-SEQ ID NO: 1-NH2 or Ac-SEQ ID NO: 2-NH2) for 3 hours at 37° C. or with ascorbic acid as an antioxidant control. After incubation, cells were loaded with a fluorescence probe for 45 minutes and then H2O2 was added for 30 minutes.
# Finally, fluorescence was determined at Excitation 485 nm/Emission 520 nm.
# [5] = test system: Primary human epidermal keratinocytes; test: Protection against glycation induced by heavy metals (Advanced Glycation End products, competitive ELISA); assay type: cell-based; conditions: all concentrations tested (0.01, 0.05, 0.1 mg/ml), 48 hours
# Method: Primary human epidermal keratinocytes were seeded in 96-well plates in standard culture medium and, 24 hours later, subjected to a simultaneous treatment with heavy metals (containing a mixture of Fe, Pb and Cr) and peptide Ac-SEQ ID NO: 1-NH2 for 48 hours. Levels of Advance Glycation End (AGE) products were measured by means of a competitive ELISA assay with absorbance at 450 nm.
# [6] = Trolox Equivalent Antioxidant Capacity (TEAC), ABTS Decolorization Assay; assay type: biochemical
# Method: As positive controls of the assay, ascorbic acid 2-glucoside (hereinafter, AA-2G) and magnesium ascorbyl phosphate (hereinafter, MAP) were tested.
# TEAC assay was used in this case. Said assay measures the antioxidant capacity of a given substance, as compared to the standard, Trolox, an analogue of Vitamin E.
# Antioxidant capacity was measured using the ABTS Decolorization Assay. In this assay, the pre-formed radical monocation of 2,2′-azinobis-(3-ethylbenzothiazoline-6-sulfonic acid) (ABTS*+) was generated by oxidation of ABTS with potassium persulfate and was reduced in the presence of antioxidants (Ac-SEQ ID NO: 1-NH2, Ac-SEQ ID NO: 2-NH2, Ac-SEQ ID NO: 3-NH2 or Ferulic acid-SEQ ID NO: 2-NH2). The ABTS.+ has a blue-green color, with maximum absorptions at 650, 734 and 820 nm. Antioxidants in the sample reduce ABTS.+ suppressing this color production to a degree that is proportional to their concentrations and antioxidant capacity. Quantification of absorbance was conducted at 734 nm using a Polarstar Omega equipment (BMG Labtech).
# [7] = lower tested concentration (0.01 mg/ml)
# [8] = other two tested concentrations (0.05, 0.1 mg/ml)
compound,measurement,setting,value
"CC(=O)N[C@@H](CC(=O)O)C(=O)N[C@@H](Cc1ccc(O)cc1)C(=O)N[C@@H](CCCCN)C(=O)N[C@H](C(N)=O)C(C)C [Ac-SEQ ID NO: 1-NH2, Ac-Asp-Tyr-Lys-Val-NH2] (Ac-DYKV-NH2)",protection of DNA oxidation,[1]; 0.1 mg/ml,almost complete inhibition of the effects of synthetic smoke
same,DNA oxidation (8-OHdG),[1]; [7],slight decrease (non-statistically significant)
same,DNA oxidation (8-OHdG),[1]; [8],"higher, statistically significant, effect"
same,lipoxidation (MDA),[2]; [7],slight decrease (non-statistically significant)
same,lipoxidation (MDA),[2]; [8],"higher, statistically significant, effect"
same,brightening or whitening activity compared with kojic acid,"[3]; all the concentrations tested (0.01, 0.05, 0.1 mg/ml)",significantly higher brightening or whitening activity
same,increased brightening activity relative to the activity of the two concentrations of kojic acid,[3]; all the concentrations tested,two to more than four times
same,activity against hydrogen peroxide induced reactive oxygen species compared with Ac-SEQ ID NO: 2-NH2,[4],increased activity in all concentrations tested
same,quantity of advanced glycation end-products,[5],statistically significant decrease
same,trolox equivalents,[6]; 0.01 mg/mL,15 µM
same,trolox equivalents,[6]; 0.05 mg/mL,24 µM
same,trolox equivalents,[6]; 0.1 mg/mL,94 µM
